Assay results taken from patent US9156822B2, “Functionally selective ligands of dopamine D2 receptors” (The University of North Carolina at Chapel Hill, priority 2010, dated 2015).
Read-outs that look alike come from different tables or passages of the source.

Columns and labels:
[1] = biological target: hD2 receptors (Homo sapiens (Human), UniProt P14416); assay: D2 mediated cAMP GloSensor assay; assay type: cell-based; settings: for EC50: HEK293T, isoproterenol-stimulated cAMP; for Emax: normalized to quinpirole, negative = inverse agonist, read-out: cAMP (GloSensor) Emax; for cAMP (GloSensor) activity in words (merged EC50/Emax cell): key: neutral: Neutral ligands are either antagonists or are inactive
[2] = biological target: T1, D2 receptors (Homo sapiens (Human), UniProt P14416); assay: D2 β-arrestin recruitment (Tango) assay; assay type: cell-based; settings: for Emax: normalized to quinpirole (100%)
Procedure: The next day, cells were plated in white, clear-bottom, 384-well plates (Greiner, 10,000 cells/well, 50 μl/well) in DMEM containing 1% dialyzed fetal bovine serum. […] Data were normalized to vehicle (0%) and quinpirole (100%) controls and regressed using the sigmoidal dose-response function built into GraphPad Prism 4.0.
Target sequence in this assay (P14416 whole entry, looked up): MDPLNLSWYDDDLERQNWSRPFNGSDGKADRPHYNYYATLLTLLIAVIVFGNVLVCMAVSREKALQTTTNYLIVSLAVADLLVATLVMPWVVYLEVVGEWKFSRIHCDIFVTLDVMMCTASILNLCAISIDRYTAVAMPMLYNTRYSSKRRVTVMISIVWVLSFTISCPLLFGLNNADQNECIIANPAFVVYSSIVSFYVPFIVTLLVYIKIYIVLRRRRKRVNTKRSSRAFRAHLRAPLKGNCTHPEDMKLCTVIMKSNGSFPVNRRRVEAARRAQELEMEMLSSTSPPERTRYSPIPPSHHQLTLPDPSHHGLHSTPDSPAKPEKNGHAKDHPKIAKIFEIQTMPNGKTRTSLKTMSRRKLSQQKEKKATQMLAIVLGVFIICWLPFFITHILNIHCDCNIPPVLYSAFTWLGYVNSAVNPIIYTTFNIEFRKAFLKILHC

[3] = biological target: T1, D2 receptors; assay: CHO-D2 radioligand binding assay ([3H]N-methylspiperone competition); settings: CHO-D2 membranes, [3H]N-methylspiperone; read-out: D2 Binding Ki ± SEM
Target sequence in this assay (P14416 whole entry): as the sequence (P14416 whole entry, looked up) above

[4] = in vivo; settings: mouse
[5] = HTLA cells, read-out: β-arrestin (Tango) EC50

Sequence of hD2 receptors (P14416 whole entry): as the sequence (P14416 whole entry, looked up) above

Row | SMILES | cAMP (GloSensor) activity in words (merged EC50/Emax cell) [1] | β-arrestin (Tango) % activ at 1 μM [2] [%] | EC50 [2, 5] [nM] | Ki [3] [nM] | Emax [2] [%] | EC50 [1] [nM] | Emax [1] [%] | other results
1 | O=c1[nH]c2ccc(OCCCCN3CCN(c4cccc(Cl)c4Cl)CC3)cc2[nH]1 [Compound 35] | neutral | 19 | 16 | 15 ± 3 |  |  |  | 
2 | O=C1NCCc2ccc(OCCCCN3CCCN(c4cccc(Cl)c4Cl)CC3)cc21 [Compound 6, 7-(4-(4-(2,3-dichlorophenyl)-1,4-diazepan-1-yl)butoxy)-3,4-dihydroisoquinolin-1(2H)-one] |  |  |  |  |  |  |  | melting point: 86 to 88 °C
3 | O=C1CCc2ccc(OCCCCN3CCN(c4cccc(Cl)c4Cl)CC3)cc2N1 [Aripiprazole, aripiprazole, reference compound] |  |  |  |  |  |  |  | AUC(0-inf) ([4]; brain): 1180 ng·h/mL; AUC(0-t) ([4]; brain): 1100 ng·h/mL; Cmax ([4]; brain): 166 ng/mL; Tmax ([4]; brain): 30 min; AUC(0-inf) ([4]; plasma): 445 ng·h/mL; AUC(0-t) ([4]; plasma): 431 ng·h/mL; Cmax ([4]; plasma): 75.6 ng/mL; Tmax ([4]; plasma): 15 min
4 | COc1ccccc1N1CCCN(CCCCOc2ccc3ccc(=O)[nH]c3c2)CC1 [Compound 10, 7-(4-(4-(2-methoxyphenyl)-1,4-diazepan-1-yl)butoxy)quinolin-2(1H)-one] |  |  |  |  | 16 |  |  | 
5 | COc1ccccc1N1CCN(CCCCOc2ccc3c(n2)NC(=O)CC3)CC1 [Compound 37] |  |  |  | 1.7 ± 0.1 | 67 | 11 | 17 | EC50 [2]: 1 nM
6 | CC(C)Oc1ccccc1N1CCCN(CCCCOc2ccc3c(n2)NC(=O)CC3)CC1 [Compound 17, 7-(4-(4-(2-isopropoxyphenyl)-1,4-diazepan-1-yl)butoxy)-3,4-dihydro-1,8-naphthyridin-2(1H)-one] |  |  | 4.6 | 1.29 ± 0.03 | 56 | 0.2 | 18 | 
7 | O=C1NCCc2ccc(OCCCCN3CCN(c4cccc(Cl)c4Cl)CC3)cc21 [Compound 25, 7-(4-(4-(2,3-dichlorophenyl)piperazin-1-yl)butoxy)-3,4-dihydroisoquinolin-1(2H)-one] |  | 12 | 18 | 18 ± 3 | 55 | 3700 | -74 | 
8 | O=C1CCc2ccc(OCCCCN3CCN(c4cccc5c4OCCO5)CC3)nc2N1 [Compound 41, 7-(4-(4-(2,3-dihydrobenzo[b][1,4]dioxin-5-yl)piperazin-1-yl)butoxy)-3,4-dihydro-1,8-naphthyridin-2(1H)-one] |  |  | 0.6 | 0.45 ± 0.02 | 31 | 0.4 | -19 | 
9 | CC(=O)Nc1cc(OCCCCN2CCN(c3cccc(Cl)c3Cl)CC2)ccc1C [Compound 43, N-(5-(4-(4-(2,3-dichlorophenyl)piperazin-1-yl)butoxy)-2-methylphenyl)acetamide] | neutral |  | 9.2 | 72 ± 4 | 59 |  |  | 
10 | CC(C)Oc1ccccc1N1CCCN(CCCCOc2ccc3ccc(=O)[nH]c3c2)CC1 [Compound 18, 7-(4-(4-(2-isopropoxyphenyl)-1,4-diazepan-1-yl)butoxy)quinolin-2(1H)-one] |  |  | 4.2 | 0.93 ± 0.03 | 58 | 0.1 | 32 | 
11 | O=c1[nH]c2ccc(OCCCN3CCN(c4cccc(Cl)c4Cl)CC3)cc2[nH]1 [Compound 34, 5-(3-(4-(2,3-dichlorophenyl)piperazin-1-yl)propoxy)-1H-benzo[d]imidazol-2(3H)-one] |  | 36 |  | 25 ± 3 | 78 | 512 | 25 | EC50 [2]: 52 nM
12 | CCOc1ccccc1N1CCCN(CCCCOc2ccc3c(c2)NC(=O)CC3)CC1 [Compound 12, 7-(4-(4-(2-ethoxyphenyl)-1,4-diazepan-1-yl)butoxy)-3,4-dihydroquinolin-2(1H)-one] | neutral |  | 4.3 | 4.1 ± 0.2 | 41 |  |  | 
13 | CCOc1ccccc1N1CCCN(CCCCOc2ccc3ccc(=O)[nH]c3c2)CC1 [Compound 14, 7-(4-(4-(2-ethoxyphenyl)-1,4-diazepan-1-yl)butoxy)quinolin-2(1H)-one] |  |  |  |  | 58 |  |  | 
14 | O=C1CCc2ccc(OCCCCN3CCN(c4cccc5c4OCCO5)CC3)cc2N1 [Compound 40, 7-(4-(4-(2,3-dihydrobenzo[b][1,4]dioxin-5-yl)piperazin-1-yl)butoxy)-3,4-dihydroquinolin-2(1H)-one] | neutral |  | 1.5 | 0.3 ± 0.02 | 33 |  |  | 
15 | Clc1cccc(N2CCN(CCCCOc3ccc4cn[nH]c4c3)CC2)c1Cl [Compound 28, 6-(4-(4-(2,3-dichlorophenyl)piperazin-1-yl)butoxy)-1H-indazole] |  | 18 | 92 | 66 ± 10 | 65 | 5.7 | -29 | 
16 | O=C1NCCc2ccc(OCCCN3CCN(c4cccc(Cl)c4Cl)CC3)cc21 [Compound 32, 7-(3-(4-(2,3-dichlorophenyl)piperazin-1-yl)propoxy)-3,4-dihydroisoquinolin-1(2H)-one] | neutral | 44 | 30 | 18 ± 2 | 83 |  |  | 
17 | O=C1CCc2ccc(OCC3CCC(CN4CCN(c5cccc(Cl)c5Cl)CC4)CC3)cc2N1 (stereo not shown) [Compound 26, 7-((4-((4-(2,3-dichlorophenyl)piperazin-1-yl)methyl)cyclohexyl)methoxy)-3,4-dihydroquinolin-2(1H)-one] |  | 6 | 2100 | 145 ± 22 | 51 | 46000 | -25 | 
18 | CC(C)Oc1ccccc1N1CCCN(CCCCOc2ccc3c(c2)NC(=O)CC3)CC1 [Compound 16, 7-(4-(4-(2-isopropoxyphenyl)-1,4-diazepan-1-yl)butoxy)-3,4-dihydroquinolin-2(1H)-one] | neutral |  | 4.2 | 0.87 ± 0.04 | 53 |  |  | 
19 | COc1ccccc1N1CCCN(CCCCOc2ccc3c(c2)NC(=O)CC3)CC1 [Compound 9, 7-(4-(4-(2-methoxyphenyl)-1,4-diazepan-1-yl)butoxy)-3,4-dihydroquinolin-2(1H)-one] |  |  | 4.6 | 4 | 26 | 163 | -63 | 
20 | COc1ccccc1N1CCCN(CCCCOc2ccc3c(n2)NC(=O)CC3)CC1 [Compound 11, 7-(4-(4-(2-methoxyphenyl)-1,4-diazepan-1-yl)butoxy)-3,4-dihydro-1,8-naphthyridin-2(1H)-one] |  |  |  |  | 21 |  | -118 | 
21 | O=C1CCc2ccc(Oc3ccc(CN4CCN(c5cccc(Cl)c5Cl)CC4)cc3)cc2N1 [Compound 31, 7-(4-((4-(2,3-dichlorophenyl)piperazin-1-yl)methyl)phenoxy)-3,4-dihydro quinolin-2(1H)-one] |  | 16 | 399 | 108 ± 18 | 49 | 5.7 | -47 | 
22 | CCOc1ccccc1N1CCCN(CCCCOc2ccc3c(n2)NC(=O)CC3)CC1 [Compound 13, 7-(4-(4-(2-ethoxyphenyl)-1,4-diazepan-1-yl)butoxy)-3,4-dihydro-1,8-naphthyridin-2(1H)-one] | neutral |  | 4 | 4.4 ± 0.3 | 43 |  |  | 
